BindingDB's records for doi:10.7270/Q2TX3CTT (Broad Institute, 2010)

Target: Glycogen synthase kinase-3 beta (Homo sapiens, UniProt P49841)
Assay: concentration-response blocking of human GSK3B – biochemical, luminescence, cell-free homogeneous, retest, dose response (AID 434954)

Chain of Glycogen synthase kinase-3 beta (P49841 whole entry): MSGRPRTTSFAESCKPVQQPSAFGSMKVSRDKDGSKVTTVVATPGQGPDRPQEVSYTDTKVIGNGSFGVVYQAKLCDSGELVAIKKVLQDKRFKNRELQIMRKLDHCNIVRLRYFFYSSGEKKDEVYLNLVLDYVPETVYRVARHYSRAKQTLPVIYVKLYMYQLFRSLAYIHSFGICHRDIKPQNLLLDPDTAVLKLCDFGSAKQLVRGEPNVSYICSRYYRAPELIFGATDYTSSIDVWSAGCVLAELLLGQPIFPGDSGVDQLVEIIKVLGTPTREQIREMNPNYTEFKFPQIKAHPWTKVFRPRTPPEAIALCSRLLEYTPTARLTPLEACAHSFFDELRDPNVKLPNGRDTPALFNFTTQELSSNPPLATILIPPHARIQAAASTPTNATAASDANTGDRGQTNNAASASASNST

| SMILES | EC50 |
| --- | --- |
| CN(C(=O)CSc1nnc(-c2c[nH]c3ccccc23)o1)C1CCS(=O)(=O)C1 (stereo not given) [N-(1,1-dioxothiolan-3-yl)-2-[[(2Z)-2-indol-3-ylidene-3H-1,3,4-oxadiazol-5-yl]sulfanyl]-N-methylacetamide] | > 300 µM |
| N#Cc1c2n(c3c(N)ncnc13)CCCCC2 [4-Amino-6,7,8,9-tetrahydro-5H-1,3,4b-triaza-benzo[a]azulene-10-carbonitrile] | > 300 µM |
| O=C(Cc1sc(N2CCCCC2)nc1O)Nc1cccc(C(F)(F)F)c1 [MLS000570409] | > 300 µM |
| O=C(NN=Cc1ccccn1)c1cccnc1 [Nicotinic acid [1-pyridin-2-yl-meth-(E)-ylidene]-hydrazide] | > 300 µM |
| COc1cccc(C(=O)Nc2nc3ccc(S(C)(=O)=O)cc3s2)c1 [SMR000280607] | > 300 µM |
| O=C(Nc1ccccc1C(=O)N1CCOCC1)C1CCCO1 (stereo not given) [SMR000077483] | > 300 µM |
| COc1ccccc1/C=C/C=C1\Oc2c(ccc(O)c2CN2CCN(CCO)CC2)C1=O [(2Z)-7-[[4-(2-hydroxyethyl)piperazin-1-yl]methyl]-2-[(E)-3-(2-methoxyphenyl)prop-2-enylidene]-6-oxidanyl-1-benzofuran-3-one] | > 300 µM |
| Oc1ccc(CN=Nc2ccc(C(F)(F)F)cn2)cc1O [(4Z)-2-hydroxy-4-[[2-[5-(trifluoromethyl)pyridin-2-yl]hydrazinyl]methylidene]cyclohexa-2,5-dien-1-one] | 16.1 µM |
| COc1ccccc1-c1cc2ccccc2[nH]1 [2-(1H-indol-2-yl)phenyl methyl ether] | > 300 µM |
| Cc1ccc2nc3c(cc2c1)c(NC(=O)C(C)(C)C)nn3CC(C)C [2,2-dimethyl-N-[6-methyl-1-(2-methylpropyl)pyrazolo[3,4-b]quinolin-3-yl]propanamide] | > 300 µM |
| O=C1NC(=O)N(CCc2ccc(F)cc2)C(=O)C1=CNN1CCCCC1 [1-[2-(4-Fluoro-phenyl)-ethyl]-5-[1-(piperidin-1-ylamino)-meth-(Z)-ylidene]-pyrimidine-2,4,6-trione] | > 300 µM |
| Fc1cccc(Nc2ncnc3n[nH]cc23)c1 [MLS001033418] | 32.4 µM |
| COc1ccc(-c2nn(-c3ccccc3)cc2CN=O)cc1OC [N-[[3-(3,4-dimethoxyphenyl)-1-phenylpyrazol-4-yl]methylidene]hydroxylamine] | 3.99 µM |
| CCN1CCCC1CNC(=O)c1ccc2c(c1)NC(=O)/C(=C\c1ccc(OC)c(OC)c1)S2 (stereo not given) [MLS001030689] | 6.6 µM |
| CC(=O)COc1cc(C)cc2oc(=O)cc(-c3ccccc3)c12 | > 300 µM |
| COc1ccc(C2CC(=O)N3CN(c4ccc(C)c(Cl)c4)CSC3=C2C#N)cc1 (stereo not given) | > 300 µM |
| COc1ccc(CCNC(=O)CN2CCOc3ccccc32)cc1OC [2-(2,3-dihydro-1,4-benzoxazin-4-yl)-N-[2-(3,4-dimethoxyphenyl)ethyl]acetamide] | > 300 µM |
| Cc1ccc2c(c1)cc1c(=O)n(CC(=O)NCCN3CCCC3)nc(C)n12 | > 300 µM |
| Oc1ccc(N2CCN(C(=S)NCCc3ccccc3)CC2)cc1 [SMR000199335] | > 300 µM |
| O=c1cc(-c2ccccc2)c2c(O)cc(O)cc2o1 | 7.82 µM |
| C=CCNC(=O)/C(=C\c1cccc([N+](=O)[O-])c1)NC(=O)c1ccccc1 | > 300 µM |
| Nc1nonc1-n1nnc(C(=O)NN=Cc2ccc(Cl)cc2Cl)c1CN1CCCC1 [1-(4-azanyl-1,2,5-oxadiazol-3-yl)-N-[(2,4-dichlorophenyl)methylideneamino]-5-(pyrrolidin-1-ylmethyl)-1,2,3-triazole-4-carboxamide] | > 300 µM |

| SMILES | EC50 |
| --- | --- |
| O=C1C[C@@H](c2ccc(O)c(O)c2)Oc2cc(O)cc(O)c21 [2-[3,4-bis(oxidanyl)phenyl]-5,7-bis(oxidanyl)-2,3-dihydrochromen-4-one] | > 300 µM |
| COc1cc(CN=Nc2ccc(C(F)(F)F)cn2)ccc1O [(4E)-2-methoxy-4-[[[5-(trifluoromethyl)-2-pyridinyl]hydrazo]methylidene]-1-cyclohexa-2,5-dienone] | 10.1 µM |
| Cc1[nH]nc2c1C(c1ccc(O)cc1)C1C(=O)CC(C)(C)CC1=N2 (stereo not given) | 2.06 µM |
| O=C(Nc1ccccn1)Nc1cccs1 [MLS000093554] | > 300 µM |
| COc1ccc(CNCC2COc3ccccc3O2)cc1 (stereo not given) [SMR000588087] | > 300 µM |
| CCOC(=O)CSc1ccc2nnc(-c3cccs3)n2n1 [ethyl 2-[(3-thiophen-2-yl-[1,2,4]triazolo[4,3-b]pyridazin-6-yl)sulfanyl]ethanoate] | 4.1 µM |
| Nc1c(C(=O)c2ccccc2)sc(Nc2ccccc2)c1S(=O)(=O)c1ccccc1 [SMR000115215] | > 300 µM |
| CCn1c(SCC(=O)Nc2nccs2)nnc1C1CC1 [2-[(5-cyclopropyl-4-ethyl-1,2,4-triazol-3-yl)sulfanyl]-N-(1,3-thiazol-2-yl)ethanamide] | > 300 µM |
| Cn1c(SCc2nc(-c3ccccc3)no2)nnc1-c1ccco1 | > 300 µM |
| CCOc1ccccc1C=NNC(=O)c1nnn(-c2nonc2N)c1CN1CCCC1 [1-(4-amino-1,2,5-oxadiazol-3-yl)-N-[(2-ethoxyphenyl)methylideneamino]-5-(pyrrolidin-1-ylmethyl)triazole-4-carboxamide] | 1.06 µM |
| Cc1[nH]c2ccccc2c1Cc1nnc(SCC(N)=O)o1 [2-[[5-[(2-methyl-1H-indol-3-yl)methyl]-1,3,4-oxadiazol-2-yl]sulfanyl]acetamide] | > 300 µM |
| CCCCc1c(O)nc(SCC(=O)c2ccccc2)n(-c2ccccc2OC)c1=O [5-Butyl-6-hydroxy-3-(2-methoxy-phenyl)-2-(2-oxo-2-phenyl-ethylsulfanyl)-3H-pyrimidin-4-one] | > 300 µM |
| O=C(NC1CCC(C(=O)O)CC1)OCc1ccccc1 (stereo not given) [4-(phenylmethoxycarbonylamino)cyclohexane-1-carboxylic acid] | > 300 µM |
| CCCCCOC(=O)C1C(C)=Nc2ncnn2C1c1cccs1 (stereo not given) | > 300 µM |
| CC[n+]1c(CC=Nc2ccccc2)sc2ccccc21 | > 300 µM |
| Cc1ccc(-c2nn(-c3ccccc3)cc2C=C2C(=O)CC(C)(C)CC2=O)cc1 [5,5-dimethyl-2-[[3-(4-methylphenyl)-1-phenylpyrazol-4-yl]methylidene]cyclohexane-1,3-dione] | > 300 µM |
| CCOC(=O)C1C(C)=Nc2ncnn2C1c1ccc(N(C)C)cc1 (stereo not given) [ethyl 7-[4-(dimethylamino)phenyl]-5-methyl-1,7-dihydro-[1,2,4]triazolo[1,5-a]pyrimidine-6-carboxylate] | > 300 µM |
| CC1CCN(c2nc3c(N)ncnc3n2[C@@H]2O[C@H](CO)[C@@H](O)[C@H]2O)CC1 | > 300 µM |
| COc1ccc(CC(=O)Nc2ncc([N+](=O)[O-])s2)cc1OC [SMR000288398] | 8.4 µM |
| COc1ccc2c(C)c(CC(=O)N3CCN(C(=O)C4COc5ccccc5O4)CC3)c(=O)oc2c1 (stereo not given) | > 300 µM |
| CCOc1ccc(CNC(=O)Cn2ccc3cc(S(=O)(=O)N4CCCCCC4)ccc32)cc1 [SMR000629622] | > 300 µM |
| Cc1oc2ccc(OC(=O)c3cccs3)cc2c1C(=O)OC(C)C [2-Methyl-5-(thiophene-2-carbonyloxy)-benzofuran-3-carboxylic acid isopropyl ester] | > 300 µM |

| SMILES | EC50 |
| --- | --- |
| CCNC(=O)NC(=O)CSc1nc2ccccc2n1CCOC [SMR000154706] | > 300 µM |
| Cc1ccc(C)c(S(=O)(=O)N2CCN(C(C(=O)Nc3ccc(F)cc3)c3ccccc3)CC2)c1 (stereo not given) [2-[4-(2,5-dimethylphenyl)sulfonyl-1-piperazinyl]-N-(4-fluorophenyl)-2-phenylacetamide] | > 300 µM |
| Cc1ccc(OCCN(C)C(=O)C2CCC(=O)N(CCCN3CCOCC3)C2)cc1 (stereo not given) | > 300 µM |
| CC(C)Cn1nc(NC(=O)C(C)(C)C)c2cc3ccccc3nc21 [MLS000081069] | 71.4 µM |
| N#CCCn1cc(C(CC(=O)c2ccccc2)C(=O)O)c2ccccc21 (stereo not given) [MLS000049352] | > 300 µM |
| Cn1cc([CH+][N-]NC(=O)COc2ccccc2[N+](=O)[O-])c2ccccc21 [N-[(1-methylindol-3-yl)methylideneamino]-2-(2-nitrophenoxy)acetamide] | > 300 µM |
| CCOC(=O)Cc1csc(NC(=O)CSc2nc(-c3ccccc3)c(C#N)c(=O)[nH]2)n1 [MLS000690700] | > 300 µM |
| O=[N+]([O-])c1ccc(-n2nnnc2-c2ccccc2)c([N+](=O)[O-])c1 [1-{2,4-bisnitrophenyl}-5-phenyl-1H-tetraazole] | > 300 µM |
| Cc1ccc2c(c1)NC(c1cccs1)C1C(=O)CC(C)(C)CC1=N2 (stereo not given) [3,9,9-trimethyl-6-thiophen-2-yl-6,8,10,11-tetrahydro-5H-benzo[b][1,4]benzodiazepin-7-one] | > 300 µM |
| CC(CC(=O)Nc1ccc(F)c([N+](=O)[O-])c1)c1ccccc1 (stereo not given) | > 300 µM |
| CCO[C@H]1OC(C(=O)N2CCN(Cc3ccccc3)CC2)=C[C@@H](C)[C@@H]1CCCO | > 300 µM |
| CCOc1ccc(CNC(=O)C2CCN(c3nnc(C)c4c(C)n(-c5ccc(C)cc5)nc34)CC2)cc1 [MLS001028751] | > 300 µM |
| N#Cc1c(-c2ccccc2)nc(SCC(=O)N(c2ccccc2)c2ccccc2)[nH]c1=O [2-[(5-cyano-6-oxo-4-phenyl-1,6-dihydro-2-pyrimidinyl)thio]-N,N-diphenylacetamide] | > 300 µM |
| CCOC(=O)c1sc(NC(=O)CCN2C(=O)c3cccc([N+](=O)[O-])c3C2=O)c(C(=O)OCC)c1C [3-methyl-5-[[3-(4-nitro-1,3-dioxo-2-isoindolyl)-1-oxopropyl]amino]thiophene-2,4-dicarboxylic acid diethyl ester] | > 300 µM |
| O=C1NC(=O)N(Cc2ccc(F)cc2)C(=O)C1=CNCCN1CCCCC1 [MLS000040945] | > 300 µM |
| CCN1CCN(C(=O)c2cc3cc4cc(OC)ccc4nc3s2)CC1 [MLS000091315] | > 300 µM |
| COc1ccc(C)cc1S(=O)(=O)Nc1cc2c3c(c1)CCN3C(=O)CC2 [SMR000812053] | > 300 µM |
| CCSc1nc(-c2ccccc2)c(C#N)c(=O)[nH]1 [2-ethylsulfanyl-4-oxidanylidene-6-phenyl-1H-pyrimidine-5-carbonitrile] | > 300 µM |
| CN1/C(=C/C=C(/C#N)C(N)=O)C(C)(C)c2ccccc21 [(Z,4E)-2-cyano-4-(1,3,3-trimethyl-2-indolylidene)-2-butenamide] | 15.5 µM |
| Cn1nnc2sc3c(c2c1=O)CCCC3 [MLS000557299] | 23.3 µM |
| Cc1nc(Nc2ccccc2)sc1C(=O)c1ccccc1 [(2-anilino-4-methyl-1,3-thiazol-5-yl)(phenyl)methanone] | 19.8 µM |
